± gives the expanded uncertainty stated by the source.
Conditions: 101.33 kPa, Liquid; for viscosity: Concentric cylinders viscometry; for mass density: Vibrating tube method

CCCC[N+]1(C)CCCC1.O=S(=O)([N-]S(=O)(=O)C(F)(F)F)C(F)(F)F
Conditions	mass density [kg/m3]	viscosity [mPa·s]
278.15 K	1412.9 ± 1.9	230.3 ± 7.2
283.15 K	1408.3 ± 1.9	169.6 ± 5
288.15 K	1403.8 ± 1.9	128 ± 3.5
293.15 K	1399.3 ± 1.9	98.74 ± 2.6
298.15 K	1394.9 ± 1.9	77.65 ± 1.9
303.15 K	1390.5 ± 1.9	62.14 ± 1.5
308.15 K	1386.1 ± 1.9	50.52 ± 1.2
313.15 K	1381.8 ± 1.9	41.65 ± 0.99
318.15 K	1377.4 ± 1.9	34.78 ± 0.82
323.15 K	1373 ± 1.8	29.38 ± 0.69
328.15 K	1368.7 ± 1.8	25.07 ± 0.59
333.15 K	1364.3 ± 1.8	21.6 ± 0.5
338.15 K	1360 ± 1.8	18.77 ± 0.44
343.15 K	1355.7 ± 1.8	16.44 ± 0.38
348.15 K	1351.4 ± 1.8	14.5 ± 0.34
353.15 K	1346.9 ± 1.8	12.87 ± 0.3
358.15 K	1342.5 ± 1.8	11.5 ± 0.27
363.15 K	1338.3 ± 1.8	10.33 ± 0.24
368.15 K	1334.3 ± 1.8	9.32 ± 0.21
373.15 K	1330.3 ± 1.8	8.454 ± 0.19

COCC[N+]1(C)CCCC1.O=S(=O)([N-]S(=O)(=O)C(F)(F)F)C(F)(F)F
Conditions	mass density [kg/m3]	viscosity [mPa·s]
258.15 K	1494.1 ± 2.1	620.3 ± 25
263.15 K	1488.7 ± 2.1	412.3 ± 16
268.15 K	1483.6 ± 2.1	286.4 ± 9.8
273.15 K	1478.5 ± 2.1	204.56 ± 6.4
278.15 K	1473.7 ± 2.1	149.89 ± 4.3
283.15 K	1468.8 ± 2	112.96 ± 3
288.15 K	1464 ± 2	87.14 ± 2.2
293.15 K	1459.3 ± 2	68.61 ± 1.7
298.15 K	1454.7 ± 2	55.06 ± 1.3
303.15 K	1450 ± 2	44.9 ± 1.1
308.15 K	1445.2 ± 2	37.15 ± 0.88
313.15 K	1440.5 ± 2	31.15 ± 0.73
318.15 K	1435.9 ± 2	26.43 ± 0.62
323.15 K	1431.2 ± 2	22.66 ± 0.53
328.15 K	1426.6 ± 2	19.59 ± 0.46
333.15 K	1422 ± 1.9	17.09 ± 0.4
338.15 K	1417.4 ± 1.9	15.03 ± 0.35
343.15 K	1412.9 ± 1.9	13.32 ± 0.31
348.15 K	1408.2 ± 1.9	11.88 ± 0.27
353.15 K	1403.3 ± 1.9	10.66 ± 0.24
358.15 K	1398.6 ± 1.9	9.617 ± 0.22
363.15 K	1394.2 ± 1.9	8.718 ± 0.2
368.15 K	1389.9 ± 1.9	7.94 ± 0.18
373.15 K	1385.7 ± 1.9	7.263 ± 0.17

CCCC[N+]1(C)CCCC1.FC(F)(F)C(F)(F)[P-](F)(F)(F)(C(F)(F)C(F)(F)F)C(F)(F)C(F)(F)F
Conditions	mass density [kg/m3]	viscosity [mPa·s]
283.15 K	1599.8 ± 2.4	593.7 ± 24
288.15 K	1594.2 ± 2.3	409.8 ± 15
293.15 K	1588.6 ± 2.3	291.5 ± 9.9
298.15 K	1583.2 ± 2.3	213.1 ± 6.7
303.15 K	1577.9 ± 2.3	159.61 ± 4.6
308.15 K	1572.6 ± 2.3	122.18 ± 3.3
313.15 K	1567.4 ± 2.3	95.36 ± 2.4
318.15 K	1562.1 ± 2.3	75.75 ± 1.9
323.15 K	1556.9 ± 2.3	61.13 ± 1.5
328.15 K	1551.7 ± 2.2	50.03 ± 1.2
333.15 K	1546.6 ± 2.2	41.48 ± 0.98
338.15 K	1541.5 ± 2.2	34.79 ± 0.82
343.15 K	1536.3 ± 2.2	29.49 ± 0.69
348.15 K	1531.1 ± 2.2	25.24 ± 0.59
353.15 K	1525.7 ± 2.2	21.79 ± 0.51
358.15 K	1520.4 ± 2.2	18.97 ± 0.44
363.15 K	1515.3 ± 2.2	16.63 ± 0.39
368.15 K	1510.4 ± 2.1	14.68 ± 0.34
373.15 K	1505.5 ± 2.1	13.04 ± 0.3

CCOS(=O)(=O)[O-].CCn1cc[n+](C)c1 [1-ethyl-3-methylimidazolium ethyl sulfate]
Conditions	mass density [kg/m3]	viscosity [mPa·s]
253.15 K	1270.6 ± 1.7	3146.4 ± 190
258.15 K	1266.9 ± 1.6	1789.6 ± 97
263.15 K	1263.3 ± 1.6	1094.4 ± 53
268.15 K	1259.5 ± 1.6	700.85 ± 30
273.15 K	1255.7 ± 1.6	466.03 ± 18
278.15 K	1252 ± 1.6	321.37 ± 11
283.15 K	1248.3 ± 1.6	229.15 ± 7.4
288.15 K	1244.8 ± 1.6	168.31 ± 5
293.15 K	1241.3 ± 1.6	126.89 ± 3.5
298.15 K	1237.8 ± 1.6	97.84 ± 2.5
303.15 K	1234.4 ± 1.6	77.01 ± 1.9
308.15 K	1231 ± 1.6	61.71 ± 1.5
313.15 K	1227.6 ± 1.6	50.25 ± 1.2
318.15 K	1224.2 ± 1.6	41.51 ± 0.99
323.15 K	1220.8 ± 1.6	34.73 ± 0.82
328.15 K	1217.4 ± 1.6	29.4 ± 0.69
333.15 K	1214 ± 1.6	25.15 ± 0.59
338.15 K	1210.6 ± 1.6	21.72 ± 0.51
343.15 K	1207.2 ± 1.5	18.91 ± 0.44
348.15 K	1203.8 ± 1.5	16.6 ± 0.38
353.15 K	1200.4 ± 1.5	14.68 ± 0.34
358.15 K	1197.2 ± 1.5	13.06 ± 0.3
363.15 K	1194.1 ± 1.5	11.69 ± 0.27
368.15 K	1191.1 ± 1.5	10.52 ± 0.24
373.15 K	1188.2 ± 1.5	9.518 ± 0.22

CCCCCCOS(=O)(=O)[O-].CC[n+]1ccn(C)c1 [3-ethyl-1-methyl-1H-imidazolium hexyl sulfate]
Conditions	mass density [kg/m3]	viscosity [mPa·s]
268.15 K	1151.4 ± 1.5	3425.9 ± 200
273.15 K	1147.9 ± 1.5	2124.1 ± 120
278.15 K	1144.4 ± 1.4	1362.1 ± 68
283.15 K	1140.9 ± 1.4	904.77 ± 41
288.15 K	1137.4 ± 1.4	620.25 ± 25
293.15 K	1133.8 ± 1.4	437.53 ± 16
298.15 K	1130.4 ± 1.4	316.78 ± 11
303.15 K	1127 ± 2	234.83 ± 7.4
308.15 K	1123.7 ± 1.4	177.81 ± 5.2
313.15 K	1120.5 ± 1.4	137.23 ± 3.8
318.15 K	1117.2 ± 1.4	107.82 ± 2.8
323.15 K	1114 ± 2	86.06 ± 2.1
328.15 K	1110.8 ± 1.4	69.71 ± 1.7
333.15 K	1107.6 ± 1.4	57.21 ± 1.4
338.15 K	1104.4 ± 1.4	47.52 ± 1.1
343.15 K	1101.2 ± 1.4	39.91 ± 0.94
348.15 K	1097.9 ± 1.4	33.86 ± 0.79
353.15 K	1094.5 ± 1.4	29 ± 0.68
358.15 K	1091.2 ± 1.4	25.04 ± 0.58
363.15 K	1088.1 ± 1.4	21.8 ± 0.51
368.15 K	1085.1 ± 1.4	19.11 ± 0.44
373.15 K	1082.3 ± 1.4	16.87 ± 0.39

CCCCCCCCCCCCCC[P+](CCCCCC)(CCCCCC)CCCCCC.FC(F)(F)C(F)(F)[P-](F)(F)(F)(C(F)(F)C(F)(F)F)C(F)(F)C(F)(F)F
Conditions	mass density [kg/m3]	viscosity [mPa·s]
268.15 K	1207.4 ± 1.5	3067.3 ± 180
273.15 K	1203.2 ± 1.5	2010 ± 110
278.15 K	1198.9 ± 1.5	1345.2 ± 66
283.15 K	1194.6 ± 1.5	928.39 ± 42
288.15 K	1190.3 ± 1.5	654.2 ± 27
293.15 K	1186 ± 1.5	471.76 ± 18
298.15 K	1181.7 ± 1.5	347.06 ± 12
303.15 K	1177.6 ± 1.5	260.12 ± 8.4
308.15 K	1173.5 ± 1.5	198.3 ± 6
313.15 K	1169.4 ± 1.5	153.61 ± 4.3
318.15 K	1165.3 ± 1.5	120.76 ± 3.2
323.15 K	1161.3 ± 1.5	96.23 ± 2.4
328.15 K	1157.3 ± 1.5	77.68 ± 1.9
333.15 K	1153.3 ± 1.5	63.45 ± 1.5
338.15 K	1149.3 ± 1.5	52.39 ± 1.2
343.15 K	1145.3 ± 1.4	43.71 ± 1
348.15 K	1141.2 ± 1.4	36.8 ± 0.87
353.15 K	1137 ± 1.4	31.27 ± 0.73
358.15 K	1132.7 ± 1.4	26.79 ± 0.63
363.15 K	1128.7 ± 1.4	23.12 ± 0.54
368.15 K	1124.9 ± 1.4	20.09 ± 0.47
373.15 K	1121.1 ± 1.4	17.57 ± 0.41

CCCCn1cc[n+](C)c1C.O=S(=O)([N-]S(=O)(=O)C(F)(F)F)C(F)(F)F
Conditions	mass density [kg/m3]	viscosity [mPa·s]
273.15 K	1443.3 ± 2	518.55 ± 20
278.15 K	1438.4 ± 2	353.44 ± 13
283.15 K	1433.5 ± 2	249.26 ± 8.2
288.15 K	1428.7 ± 2	180.5 ± 5.5
293.15 K	1424 ± 2	134.22 ± 3.8
298.15 K	1419.4 ± 1.9	102.19 ± 2.7
303.15 K	1414.8 ± 1.9	79.46 ± 2
308.15 K	1410.1 ± 1.9	62.97 ± 1.5
313.15 K	1405.5 ± 1.9	50.76 ± 1.2
318.15 K	1401 ± 1.9	41.53 ± 0.99
323.15 K	1396.4 ± 1.9	34.45 ± 0.82
328.15 K	1391.8 ± 1.9	28.91 ± 0.68
333.15 K	1387.3 ± 1.9	24.54 ± 0.58
338.15 K	1382.8 ± 1.9	21.03 ± 0.49
343.15 K	1378.4 ± 1.9	18.17 ± 0.42
348.15 K	1373.9 ± 1.9	15.83 ± 0.37
353.15 K	1369.3 ± 1.8	13.9 ± 0.32
358.15 K	1364.4 ± 1.8	12.3 ± 0.28
363.15 K	1359.8 ± 1.8	10.94 ± 0.25
368.15 K	1355.5 ± 1.8	9.794 ± 0.23
373.15 K	1351.3 ± 1.8	8.813 ± 0.2

CCCC[N+]1(C)CCCC1.O=S(=O)([O-])C(F)(F)F [1-butyl-1-methylpyrrolidinium trifluoromethanesulfonate]
Conditions	mass density [kg/m3]	viscosity [mPa·s]
283.15 K	1263.6 ± 1.6	414.9 ± 15
288.15 K	1259.9 ± 1.6	299.4 ± 10
293.15 K	1256.1 ± 1.6	221.7 ± 6.9
298.15 K	1252.4 ± 1.6	167.87 ± 4.9
303.15 K	1248.7 ± 1.6	129.71 ± 3.5
308.15 K	1245.1 ± 1.6	102.06 ± 2.6
313.15 K	1241.5 ± 1.6	81.62 ± 2
318.15 K	1238 ± 1.6	66.24 ± 1.6
323.15 K	1234.4 ± 1.6	54.48 ± 1.3
328.15 K	1230.8 ± 1.6	45.34 ± 1.1
333.15 K	1227.3 ± 1.6	38.16 ± 0.9
338.15 K	1223.8 ± 1.6	32.45 ± 0.76
343.15 K	1220.3 ± 1.6	27.84 ± 0.65
348.15 K	1216.8 ± 1.6	24.08 ± 0.56
353.15 K	1213.3 ± 1.6	21 ± 0.49
358.15 K	1209.7 ± 1.6	18.44 ± 0.43
363.15 K	1205.9 ± 1.5	16.29 ± 0.38
368.15 K	1202.5 ± 1.5	14.48 ± 0.33
373.15 K	1199.2 ± 1.5	12.95 ± 0.3

Source: the NIST ThermoML archive (doi:10.1021/je200883w)
